Experimental data taken from publication PMC6053381, “Novel 2-phenyloxypyrimidine derivative induces apoptosis and autophagy via inhibiting PI3K pathway and activating MAPK/ERK signaling in hepatocellular carcinoma cells” (Scientific Reports, 2018).

Experiments:
[1] = tested on: SNU368; test: CellTiter-Glo luminescent cell viability assay; format: cell-based; details: 120 h incubation, read-out: Anti-proliferative activity IC50 SNU368
Excerpt: (§1) The in vitro antitumor activity of all compounds was screened against six HCC cell lines by CellTiter-Glo luminescent cell viability assay as described earlier. […] After a comprehensive assessment of PDGFR inhibition, cellular activity against HCC cells as well as potential druggability, E5 was chosen to investigate its kinase profiling, antitumor activity and molecular mechanism in the following study. […]
(§2) authenticated by using short tandem repeat (STR) matching analysis. No mycoplasma contamination was detected.
(§3) CellTiter-Glo luminescent cell viability assay
(§4) For experiments hepatocellular carcinoma cells were seeded at 4000 cells per well in 96-well plates. After overnight incubation, solution of compounds in DMSO at various concentrations were added to the cells and further incubated for 120 h. Cell viability was measured with the CellTiter-Glo Luminescent Cell Viability Assay (Promega) according to the manufacturer’s instructions. Luminescence was measured using an EnVision Multilabel Plate Reader (Perkin-Elmer). The cytotoxicity of the compounds was expressed as the percent age of luminescence relative to that of untreated cells . The concentration of compound producing 50% of cell proliferation (IC50) was calculated by nonlinear regression analysis of the response-concentration (log) curve, using the Graph-Pad Prism program package (Graph Pad Software; San Diego, CA). Results are expressed as the means of two […] experiments

[2] = tested on: SMMC-7721; test: CellTiter-Glo luminescent cell viability assay; format: cell-based; details: Homo sapiens, SMMC-7721, 120 h incubation, read-out: Anti-proliferative activity IC50 SMMC-7721
Excerpt: as §1, §2, §3, §4

[3] = tested on: BEL7404; test: CellTiter-Glo luminescent cell viability assay; format: cell-based; details: Homo sapiens, BEL-7404, 120 h incubation, read-out: Anti-proliferative activity IC50 BEL7404
Excerpt: as §1, §2, §3, §4

[4] = tested on: QGY-7703; test: CellTiter-Glo luminescent cell viability assay; format: cell-based; details: Homo sapiens, QGY-7703, 120 h incubation, read-out: Anti-proliferative activity IC50 QGY-7703
Excerpt: as §1, §2, §3, §4

[5] = tested on: Hep3B; test: CellTiter-Glo luminescent cell viability assay; format: cell-based; details: Homo sapiens, Hep3B, 120 h incubation, read-out: Anti-proliferative activity IC50 Hep3B
Excerpt: as §1, §2, §3, §4

[6] = tested on: MHCC97-L; test: CellTiter-Glo luminescent cell viability assay; format: cell-based; details: MHCC97L, 120 h incubation, read-out: Anti-proliferative activity IC50 MHCC97-L
Excerpt: as §1, §2, §3, §4

[7] = tested on: HepG2 cells; test: Cell cycle distribution by flow cytometry (PI); format: cell-based; details: 24 h treatment
Description: (§5) Cells were incubated with E5 for 24 h, after which cells were washed, stained and subjected to flow cytometry analysis. The cell cycle was analyzed by staining with propidium iodide (PI), and the extent of cell death/apoptosis was evaluated by double staining with annexin V-FITC and PI. The fluorescence was measured with a FACScan flow cytometer (Becton Dickinson, USA).

[8] = tested on: Bel7404 cells; test: Cell cycle distribution by flow cytometry (PI); format: cell-based; details: 24 h treatment
Description: as §5

[9] = tested on: HepG2 cells; test: Colony formation assay; format: cell-based; details: 0–20 μM, 24 h treatment, two weeks culture
Description: (§6) Cells (300/well) were seeded in 24-well plates and incubated overnight in a humidified atmosphere of 5% CO2 at 37 °C. Incremental concentrations of E5 (0–20 μM) were then added, and the medium was replaced with fresh culture medium containing 10% FBS after 24 h. After two weeks of culture, colonies were fixed with methanol, stained with 1% crystal violet and colonies containing more than 50 cells were counted.

[10] = tested on: Bel7404 cells; test: Colony formation assay; format: cell-based; details: 0–20 μM, 24 h treatment, two weeks culture
Description: as §6

[11] = biological target: EGFR (Homo sapiens, UniProt P00533); test: Kinase profiling (Kinase-Glo Plus or ADP-Glo); format: biochemical; details: averages of two separate experiments
Description: (§7) To better characterize kinase inhibition, the ability of E5 to inhibit a panel of purified kinases was assessed.
(§8) PDGFR kinase activity was measured using Caliper microfluidic mobility shift technology. Briefly, 2 μL compound solution (25 μM) in 25% DMSO per well were added into the 384 well microtiter plates. Then, 10 μL per well of enzyme solution (100 mM HEPES, 10 mM MgCl2, Brij35 (30%) 100 μL, 1 mM DTT, 20 ng enzyme) was added. After a brief centrifugation at 1,000 rpm, the kinase reactions were started by addition of 38 μL per well of peptide/ATP-solution (40 μM ATP, 6.5 μM peptide 5′-FAM-KKKKEEIYFFF-NH2, Tris-HCl buffer, pH 7.0) incubated at 30 °C for 60 min and stopped by the addition of 20 μL 35 mM EDTA per well. The electrophoretic separation of the phosphorylated and non-phosphorylated peptides was then carried out on LabChip EZ Reader II (Caliper Life Sciences). All other kinase reactions were carried out as previously reported using the Kinase-Glo Plus or ADP-Glo assay. Kinase inhibition rates were calculated per manufacturer’s instructions.

[12] = biological target: FGFR1 (Homo sapiens, UniProt P11362); test: Kinase profiling (Kinase-Glo Plus or ADP-Glo); format: biochemical; details: averages of two separate experiments
Chain of FGFR1 (P11362 22-822, species assumed): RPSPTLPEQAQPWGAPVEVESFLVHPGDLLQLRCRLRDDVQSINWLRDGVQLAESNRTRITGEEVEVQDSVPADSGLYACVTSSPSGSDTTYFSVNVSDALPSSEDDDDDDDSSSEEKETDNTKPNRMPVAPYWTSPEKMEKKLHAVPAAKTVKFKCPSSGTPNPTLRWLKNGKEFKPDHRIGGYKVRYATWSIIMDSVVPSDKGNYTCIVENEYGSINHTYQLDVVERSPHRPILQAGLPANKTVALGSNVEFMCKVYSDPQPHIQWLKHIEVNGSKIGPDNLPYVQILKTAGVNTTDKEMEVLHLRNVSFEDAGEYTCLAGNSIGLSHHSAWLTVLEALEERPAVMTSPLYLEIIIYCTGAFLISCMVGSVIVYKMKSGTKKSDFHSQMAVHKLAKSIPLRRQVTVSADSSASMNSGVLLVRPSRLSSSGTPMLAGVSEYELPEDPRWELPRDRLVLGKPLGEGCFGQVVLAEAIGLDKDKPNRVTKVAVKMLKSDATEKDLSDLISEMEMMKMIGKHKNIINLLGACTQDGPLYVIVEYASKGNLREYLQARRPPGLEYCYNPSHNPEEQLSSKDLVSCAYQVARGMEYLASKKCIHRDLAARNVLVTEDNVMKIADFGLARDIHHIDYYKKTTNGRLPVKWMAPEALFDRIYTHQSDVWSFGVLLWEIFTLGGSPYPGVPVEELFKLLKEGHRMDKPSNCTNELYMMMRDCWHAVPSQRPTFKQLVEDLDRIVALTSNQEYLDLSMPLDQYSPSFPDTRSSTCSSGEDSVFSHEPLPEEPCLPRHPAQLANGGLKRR
Description: as §7, §8

[13] = biological target: c-KIT (Homo sapiens, UniProt P10721); test: Kinase profiling (Kinase-Glo Plus or ADP-Glo); format: biochemical; details: averages of two separate experiments
Chain of c-KIT (P10721 26-976): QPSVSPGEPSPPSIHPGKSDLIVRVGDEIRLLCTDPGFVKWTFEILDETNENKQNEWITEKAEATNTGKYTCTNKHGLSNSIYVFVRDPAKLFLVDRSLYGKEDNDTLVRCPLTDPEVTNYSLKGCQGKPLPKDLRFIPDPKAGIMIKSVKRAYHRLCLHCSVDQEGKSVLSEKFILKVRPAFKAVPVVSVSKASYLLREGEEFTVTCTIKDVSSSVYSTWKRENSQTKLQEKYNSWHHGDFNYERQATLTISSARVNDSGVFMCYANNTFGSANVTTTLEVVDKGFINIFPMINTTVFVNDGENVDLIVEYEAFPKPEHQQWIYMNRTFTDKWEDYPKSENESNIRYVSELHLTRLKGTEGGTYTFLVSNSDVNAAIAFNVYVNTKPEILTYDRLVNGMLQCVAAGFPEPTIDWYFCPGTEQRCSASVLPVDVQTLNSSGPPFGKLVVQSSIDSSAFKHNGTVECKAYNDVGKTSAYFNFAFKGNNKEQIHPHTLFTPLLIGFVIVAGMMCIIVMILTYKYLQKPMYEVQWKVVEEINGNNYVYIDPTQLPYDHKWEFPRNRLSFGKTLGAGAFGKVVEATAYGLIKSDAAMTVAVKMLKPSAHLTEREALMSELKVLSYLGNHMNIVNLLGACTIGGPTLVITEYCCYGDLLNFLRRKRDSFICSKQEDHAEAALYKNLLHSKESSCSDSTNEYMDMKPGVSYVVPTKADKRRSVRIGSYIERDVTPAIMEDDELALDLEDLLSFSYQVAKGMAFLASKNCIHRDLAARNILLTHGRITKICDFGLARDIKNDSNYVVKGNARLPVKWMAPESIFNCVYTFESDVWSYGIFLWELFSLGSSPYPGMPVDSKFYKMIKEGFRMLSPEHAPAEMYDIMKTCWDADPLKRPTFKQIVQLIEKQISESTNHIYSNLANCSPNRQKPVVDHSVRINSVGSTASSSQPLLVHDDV
Description: as §7, §8

[14] = biological target: B-raf (Homo sapiens, UniProt P15056); test: Kinase profiling (Kinase-Glo Plus or ADP-Glo); format: biochemical; details: averages of two separate experiments
Description: as §7, §8

[15] = biological target: Raf-1 (Homo sapiens, UniProt P04049); test: Kinase profiling (Kinase-Glo Plus or ADP-Glo); format: biochemical; details: averages of two separate experiments
Description: as §7, §8

[16] = biological target: ABL2 (Homo sapiens, UniProt P42684); test: Kinase profiling (Kinase-Glo Plus or ADP-Glo); format: biochemical; details: averages of two separate experiments
Description: as §7, §8

[17] = biological target: LCK (Homo sapiens, UniProt P06239); test: Kinase profiling (Kinase-Glo Plus or ADP-Glo); format: biochemical; details: averages of two separate experiments
Description: as §7, §8

[18] = biological target: FLT3 (Homo sapiens, UniProt P36888); test: Kinase profiling (Kinase-Glo Plus or ADP-Glo); format: biochemical; details: averages of two separate experiments
Chain of FLT3 (P36888 27-993, species assumed): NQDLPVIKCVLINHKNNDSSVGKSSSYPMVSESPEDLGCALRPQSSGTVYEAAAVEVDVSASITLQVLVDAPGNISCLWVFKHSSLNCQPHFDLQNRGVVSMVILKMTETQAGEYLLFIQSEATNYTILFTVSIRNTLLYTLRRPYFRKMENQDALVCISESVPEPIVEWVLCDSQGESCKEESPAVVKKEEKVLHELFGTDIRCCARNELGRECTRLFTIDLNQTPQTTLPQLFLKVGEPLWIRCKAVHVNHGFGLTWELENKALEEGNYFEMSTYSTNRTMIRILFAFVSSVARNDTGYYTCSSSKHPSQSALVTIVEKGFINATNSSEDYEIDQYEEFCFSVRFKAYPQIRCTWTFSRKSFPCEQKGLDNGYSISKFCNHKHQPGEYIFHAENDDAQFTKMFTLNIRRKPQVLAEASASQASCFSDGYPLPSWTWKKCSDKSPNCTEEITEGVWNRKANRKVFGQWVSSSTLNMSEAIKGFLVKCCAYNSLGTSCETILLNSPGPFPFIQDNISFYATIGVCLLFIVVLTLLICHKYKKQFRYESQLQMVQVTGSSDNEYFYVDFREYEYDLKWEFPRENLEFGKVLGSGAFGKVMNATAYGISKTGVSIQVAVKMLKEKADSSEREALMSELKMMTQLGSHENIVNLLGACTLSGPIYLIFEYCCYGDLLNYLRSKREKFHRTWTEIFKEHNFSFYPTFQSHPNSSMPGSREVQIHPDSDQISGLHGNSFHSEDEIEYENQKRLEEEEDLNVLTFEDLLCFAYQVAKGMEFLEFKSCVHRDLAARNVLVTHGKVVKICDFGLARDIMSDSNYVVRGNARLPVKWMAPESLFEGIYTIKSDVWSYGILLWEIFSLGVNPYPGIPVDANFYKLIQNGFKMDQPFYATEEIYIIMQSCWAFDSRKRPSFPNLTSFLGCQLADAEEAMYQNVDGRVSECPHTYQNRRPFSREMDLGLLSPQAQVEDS
Description: as §7, §8

[19] = biological target: ABL1 (Homo sapiens, UniProt P00519); test: Kinase profiling (Kinase-Glo Plus or ADP-Glo); format: biochemical; details: averages of two separate experiments
Description: as §7, §8

[20] = biological target: FGFR2 (Homo sapiens, UniProt P21802); test: Kinase profiling (Kinase-Glo Plus or ADP-Glo); format: biochemical; details: averages of two separate experiments
Description: as §7, §8

[21] = biological target: PDGFRβ (Homo sapiens, UniProt P09619); test: PDGFR kinase assay, Caliper microfluidic mobility shift; format: biochemical; details: averages of two separate experiments
Chain of PDGFRβ (P09619 33-1106): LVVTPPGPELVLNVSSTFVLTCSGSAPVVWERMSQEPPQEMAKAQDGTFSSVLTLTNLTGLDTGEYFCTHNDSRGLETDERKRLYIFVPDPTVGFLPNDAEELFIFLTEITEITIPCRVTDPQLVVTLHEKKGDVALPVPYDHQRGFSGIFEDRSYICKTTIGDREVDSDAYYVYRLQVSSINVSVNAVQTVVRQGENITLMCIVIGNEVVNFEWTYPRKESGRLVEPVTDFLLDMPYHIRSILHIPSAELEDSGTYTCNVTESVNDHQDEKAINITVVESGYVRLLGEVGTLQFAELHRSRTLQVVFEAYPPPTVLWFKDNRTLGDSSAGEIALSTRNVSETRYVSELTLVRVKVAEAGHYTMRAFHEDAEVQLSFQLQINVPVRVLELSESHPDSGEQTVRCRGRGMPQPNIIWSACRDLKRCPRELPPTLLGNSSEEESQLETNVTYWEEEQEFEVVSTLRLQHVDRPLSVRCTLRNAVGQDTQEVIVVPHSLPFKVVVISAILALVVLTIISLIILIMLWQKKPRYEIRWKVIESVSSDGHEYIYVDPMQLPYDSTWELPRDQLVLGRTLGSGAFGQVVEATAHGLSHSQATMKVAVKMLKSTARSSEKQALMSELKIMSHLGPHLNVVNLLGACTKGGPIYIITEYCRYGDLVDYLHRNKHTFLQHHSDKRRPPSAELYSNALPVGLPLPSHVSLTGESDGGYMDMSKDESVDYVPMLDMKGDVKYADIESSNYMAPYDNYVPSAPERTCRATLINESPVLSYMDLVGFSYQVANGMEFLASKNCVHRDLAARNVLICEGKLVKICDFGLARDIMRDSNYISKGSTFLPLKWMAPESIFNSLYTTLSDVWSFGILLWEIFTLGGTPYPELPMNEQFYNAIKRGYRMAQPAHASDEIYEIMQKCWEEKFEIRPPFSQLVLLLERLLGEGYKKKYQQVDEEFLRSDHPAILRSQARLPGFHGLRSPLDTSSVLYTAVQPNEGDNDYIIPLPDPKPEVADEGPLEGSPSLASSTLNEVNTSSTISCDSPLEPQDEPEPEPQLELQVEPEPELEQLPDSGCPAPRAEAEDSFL
Description: (§9) In vitro inhibitory activities of all compounds at 1 μM against PDGFRα and PDGFRβ were evaluated using Caliper microfluidic mobility shift technology. […] At the same concentration, only E5 inhibited greater than 50% of PDGFRβ activity (Fig. 2B).
as §8

[22] = biological target: PDGFRα (Homo sapiens, UniProt P16234); test: as above; format: biochemical
Chain of PDGFRα (P16234 24-1089): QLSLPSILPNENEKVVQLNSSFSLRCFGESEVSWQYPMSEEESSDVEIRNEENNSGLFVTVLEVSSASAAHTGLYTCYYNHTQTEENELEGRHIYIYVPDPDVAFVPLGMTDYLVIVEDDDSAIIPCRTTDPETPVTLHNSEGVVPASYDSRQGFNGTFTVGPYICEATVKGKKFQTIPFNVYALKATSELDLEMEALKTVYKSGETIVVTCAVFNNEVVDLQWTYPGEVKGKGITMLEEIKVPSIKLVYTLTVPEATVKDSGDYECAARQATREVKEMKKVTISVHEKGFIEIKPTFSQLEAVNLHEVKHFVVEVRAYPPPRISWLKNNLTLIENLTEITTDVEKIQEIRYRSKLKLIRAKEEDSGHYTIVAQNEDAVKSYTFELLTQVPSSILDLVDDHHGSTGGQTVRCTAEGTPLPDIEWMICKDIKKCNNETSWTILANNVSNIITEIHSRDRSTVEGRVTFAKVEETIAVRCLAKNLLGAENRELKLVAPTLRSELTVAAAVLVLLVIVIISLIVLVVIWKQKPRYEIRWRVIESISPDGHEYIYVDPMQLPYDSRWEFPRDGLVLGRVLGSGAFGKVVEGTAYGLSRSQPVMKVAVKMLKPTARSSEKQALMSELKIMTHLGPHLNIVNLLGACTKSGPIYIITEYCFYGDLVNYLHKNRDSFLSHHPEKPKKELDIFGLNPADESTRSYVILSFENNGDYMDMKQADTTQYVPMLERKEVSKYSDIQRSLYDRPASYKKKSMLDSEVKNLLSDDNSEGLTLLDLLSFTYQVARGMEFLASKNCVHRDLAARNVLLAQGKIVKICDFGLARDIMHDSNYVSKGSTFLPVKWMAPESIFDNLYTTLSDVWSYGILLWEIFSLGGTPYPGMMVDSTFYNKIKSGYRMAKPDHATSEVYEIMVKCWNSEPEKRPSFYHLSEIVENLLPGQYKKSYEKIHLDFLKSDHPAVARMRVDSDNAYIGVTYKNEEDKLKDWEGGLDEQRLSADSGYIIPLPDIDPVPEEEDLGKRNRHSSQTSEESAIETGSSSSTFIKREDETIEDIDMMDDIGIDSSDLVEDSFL
Description: as §9, §8

IC50 [1]: 8.9 µM | IC50 [2]: 1 µM | IC50 [3]: 0.8 µM | IC50 [5]: 2.6 µM | IC50 [11]: > 25 µM | IC50 [12]: > 25 µM | IC50 [13]: 0.51 µM | IC50 [14]: > 25 µM | IC50 [15]: > 25 µM | IC50 [16]: 4.36 µM | IC50 [17]: > 25 µM | IC50 [18]: > 25 µM | IC50 FLT3 [18]: no inhibition | IC50 [19]: 9.35 µM | IC50 [20]: > 25 µM | IC50 [21]: 0.93 µM | IC50 PDGFRβ [21]: moderate inhibitory activity | inhibition at 1 µM ([21]; compound at 1 µM, read-out: Inhibition effect (%) PDGFRβ): > 50% | Selectivity index ([22]; IC50 (PDGFRβ)/ IC50 (PDGFRα)): 2.32 | IC50 ([22]; averages of two separate experiments): 0.4 µM | inhibition at 1 µM ([22]; compound at 1 µM, averages of two separate experiments, read-out: Inhibition effect (%) PDGFRα): > 85%
SMILES: Cc1ccc(NC(=O)c2ccc(CN3CCN(C)CC3)cc2)cc1Oc1nccc(-c2cc3ccccc3o2)n1 [E5, N-(3-((4-(benzofuran-2-yl)pyrimidin-2-yl)oxy)-4-methylphenyl)-4-((4-methylpiperazin-1-yl)methyl)benzamide]
IC50 [4]: 15.1 µM | IC50 [6]: 10 µM | Effect on cell cycle distribution [7]: elicited G2/M phase arrest in a dose-dependent manner | Effect on cell cycle distribution [8]: elicited G2/M phase arrest in a dose-dependent manner | Effect on clonogenicity [9]: significantly inhibited the clonogenicity | Effect on clonogenicity [10]: significantly inhibited the clonogenicity
